Columns and labels:
Format in all cases: biochemical
[1] = molecular target: T1, Zea mays bx9 glucosyl transferase (C-terminally his tagged SEQ ID NO: 1) (Zea mays, UniProt B4G072); assay: UDP-Glo glucosyl transferase assay, purified enzyme; settings: for Activity: herbicide mM: V 0.300, VI 0.250, VII 0.210, IV, VIII, XI, XXI, XX, XVIII, XVI, XV, XIV 0.200, others 1.000
T1 construct: His tag (C); made in house; host or cells: E. coli BL21 (DE3), pET24a
T1 sequence (B4G072 1-462): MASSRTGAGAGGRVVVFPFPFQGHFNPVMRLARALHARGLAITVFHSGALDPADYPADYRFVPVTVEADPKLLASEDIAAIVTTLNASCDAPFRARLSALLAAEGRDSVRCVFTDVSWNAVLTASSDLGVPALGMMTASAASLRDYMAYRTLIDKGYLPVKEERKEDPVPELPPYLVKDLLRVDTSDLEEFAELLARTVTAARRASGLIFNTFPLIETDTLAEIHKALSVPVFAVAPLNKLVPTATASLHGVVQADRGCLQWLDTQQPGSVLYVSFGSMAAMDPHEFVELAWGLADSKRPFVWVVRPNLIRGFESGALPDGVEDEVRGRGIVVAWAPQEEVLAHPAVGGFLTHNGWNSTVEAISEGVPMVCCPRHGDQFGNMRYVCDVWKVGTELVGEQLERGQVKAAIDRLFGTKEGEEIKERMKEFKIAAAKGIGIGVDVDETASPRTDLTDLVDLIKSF
Method: (§1) Glucosyl transferase activity is assayed via measurement of acceptor substrate-dependent production of UDP from ultrapure UDP-glucose using the Promega UDP-Glo™ method and according to the manufacturer's instructions. Assays are run in 96 well microtiter plates.
(§2) Enzyme, typically at a stock concentration of ˜2 mg/ml is diluted to an appropriate concentration in 50 mM K^+ Hepes buffer at pH7.5 containing 0.5 mg/mL bovine serum albumin (BSA) and 5 ul aliquots of this diluted enzyme added to each well of a Perkin Elmer white ½ area 96 well plate. […] Assays are run for an appropriate time (usually 10 to 60 min) so that the amount of UDP formed lies within the most nearly linear part of the UDP standard curve and are stopped with the addition and mixing of 25 ul UDP-Glo™ detection reagent (prepared as described below). Plates are then incubated at room temperature for 60 minutes and then read in a luminescence plate reader (Perkin Elmer Envision 2130 Multilabel Reader). A UDP standard curve is run alongside each set of assays and reagent blank control assays run with DMSO in place of test herbicide. Typically, 300 pmol of UDP corresponds to a Relative Luminescence Unit (RLU) reading of about 1.5E7 and the response curve between 0 and 600 pmol is fitted to a polynomial function (see for example FIG. 2).
(§3) The UDP-Glo™ reagents are made up and used according to the manufacturer's instructions. Thus, Nucleotide Detection Buffer and ATP are combined to make nucleotide detection reagent (NDR) dispensed into aliquots and frozen to be freshly thawed before use.
(§4) Km and kcat values in respect of UDP-glucose are derived by carrying out experiments to measure initial rates over a suitable range of concentrations of UDP glucose out at a fixed near saturating concentration of acceptor substrate. Best fit values of kcat, Km and kcat/Km are obtained by direct fitting of the data to the Michaelis-Menten equation using Graphpad Prism™ software.

[2] = molecular target: T2, SEQ ID NO 17, zmBX9 S117V, M279F, A334K mutant (Zea mays, UniProt B4G072, A334K/M279F/S117V); assay: as above; settings: herbicide mM: V 0.300, VI 0.250, VII 0.210; IV, VIII, XI, XXI, XX, XVIII, XVI, XV, XIV 0.200; others 1.000
T2 construct: polypeptides were the C-terminally his-tagged; His tag (C); made in house
Method: as §1, §2, §3, §4
(§5) Variants of C-terminally his tagged SEQ ID No:1 (w/t bx9 from Zea mays), exemplified as SEQ ID 16-30, were cloned, purified and assayed as described in Example 1. FIG. 4 depicts the data from some experiments to determine the kinetic parameters of some of these variants in respect of herbicide VI and table 12 summarizes the estimates of kinetic parameters obtained from further such experiments in respect of a range of herbicides.
(§6) Table 13 summarizes the results obtained from assays, run as described in Example 1, using a variety of alcohol and aminal PSII herbicides as substrates of the Zea mays bx9 w/t (i.e. C-terminally his tagged SEQ ID no 1) and various mutants of the same, selected from SEQ ID NO: 16-30). All of these proteins were C-terminally his-tagged, expressed and purified as described in Example 1. Assays were run and analyzed as described in example 1. It is seen that various of the mutations herein and combinations thereof led to significant improvements (over the w/t bx9 protein) in catalytic activity versus various of the herbicides and that these improvements are often of sufficient magnitude to be useful for conferring improved herbicide tolerance upon crop. This is especially the case given that even the unmutated w/t bx9 enzyme which has only modest glucosyl transferase activity (for example against compounds V and VI) was nevertheless adequately active to confer significant herbicide tolerance in the glass house (as shown in example 9) even without mutational improvement. It is also seen that particular mutations can lead to very much improved activity in respect of some chemistries but not to others but that, overall, there is at least one variant within the scope of the current invention that provides significant and useful improvement in tolerance to each of the chemistries tested.

[3] = molecular target: T3, SEQ ID NO 23, mutant of Zea mays bx9 glucosyl transferase (Zea mays, UniProt B4G072, A334K/F21Y/L194C/M279F/S117V); assay: as above; settings: lower block, concentration printed only in upper block: V 0.300, VII 0.210; IV, VIII, XI, XXI, XX, XVIII, XVI, XV, XIV 0.200; others 1.000 mM
T3 construct: His tag (C); made in house
Method: as §1, §2
(§7) The UDP-Glo™ reagents are made up and used according to the manufacturer's instructions. Thus, Nucleotide Detection Buffer and ATP are combined to make nucleotide detection reagent (NDR) dispensed into aliquots and frozen to be freshly thawed before use. […]
as §6

[4] = molecular target: T4, SEQ ID NO 20, mutant of Zea mays bx9 glucosyl transferase (Zea mays, UniProt B4G072, A281K/A334K/F21Y/L194V/M279F/S117V); settings: lower block, concentration printed only in upper block: V 0.300, VII 0.210; IV, VIII, XI, XXI, XX, XVIII, XVI, XV, XIV 0.200; others 1.000 mM
T4 construct: His tag (C); made in house
Method: as §1
as §2, with “herbicide.” for “herbicide. Typically, 300 pmol of UDP corresponds to a Relative Luminescence Unit (RLU) reading of about 1.5E7 and the response curve between 0 and 600 pmol is fitted to a polynomial function (see for example FIG. 2).”
as §3, §4
All of these proteins were C-terminally his-tagged, expressed and purified as described in Example 1. Assays were run and analyzed as described in example 1.

[5] = molecular target: T5, SEQ ID NO 18, mutant of Zea mays bx9 glucosyl transferase (Zea mays, UniProt B4G072, A281K/A334K/F21Y/M279F/S117V); assay: UDP-Glo glucosyl transferase assay, purified enzyme; settings: herbicide mM: V 0.300, VI 0.250, VII 0.210; IV, VIII, XI, XXI, XX, XVIII, XVI, XV, XIV 0.200; others 1.000
T5 construct: His tag (C); made in house
Method: as §1, §2, §7, §6

[6] = molecular target: T6, SEQ ID NO 22, mutant of Zea mays bx9 glucosyl transferase (Zea mays, UniProt B4G072, A334K/F21Y/M279F/S117V/T220P); assay: as above; settings: lower block, concentration printed only in upper block: V 0.300, VII 0.210; IV, VIII, XI, XXI, XX, XVIII, XVI, XV, XIV 0.200; others 1.000 mM
T6 construct: His tag (C); made in house
Method: as §1, §2, §3, §4, §5, §6

[7] = molecular target: T7, SEQ ID NO 19, mutant of Zea mays bx9 glucosyl transferase (Zea mays, UniProt B4G072, A281K/A334K/L194V/M279F/S117V); assay: as above; settings: herbicide mM: V 0.300, VI 0.250, VII 0.210; IV, VIII, XI, XXI, XX, XVIII, XVI, XV, XIV 0.200; others 1.000
T7 construct: His tag (C); made in house
Method: as §1, §2, §7, §6

| Structure (SMILES) | kcat ([1]; 0.5 mM UDP-glucose, 25 C, pH 7.5, DMSO reagent blank as control) | Activity [1] | Activity [2] | Activity [3] | Activity [4] | Activity [5] | Activity [6] | Activity [7] |
| --- | --- | --- | --- | --- | --- | --- | --- | --- |
| COc1ccc2c(c1)OC(O)C(=O)N2O (centres unmarked) [DIMBOA, 2,4-dihydroxy-7-methoxy-1,4-benzoxazin-3-one] | 20.82 s⁻¹ | – | – | – | – | – | – | – |
| CN1CC(O)N(c2cc(C(F)(F)F)n(C)n2)C1=O (centres unmarked) [XII] | – | 0.007 pmol/sec/pmol enzyme | 0.018 pmol/sec/pmol enzyme | – | – | – | – | – |
| C[C@H]1C(O)N(c2cc(C(C)(C)F)ncn2)C(=O)N1C (some centres unmarked) [XIV] | – | −0.001 pmol/sec/pmol enzyme | 0.037 pmol/sec/pmol enzyme | 0.196 pmol/sec/pmol enzyme | 0.411 pmol/sec/pmol enzyme | – | – | – |
| CC1CC(O)N(c2ncc(C(F)(F)F)s2)C1=O (centres unmarked) [XVI] | – | – | 0.073 pmol/sec/pmol enzyme | – | 0.687 pmol/sec/pmol enzyme | 0.359 pmol/sec/pmol enzyme | 0.285 pmol/sec/pmol enzyme | – |
| COC1=C(C)C(O)N(c2cc(C(C)(C)C)ncn2)C1=O (centres unmarked) [X] | – | −0.001 pmol/sec/pmol enzyme | – | – | 0.137 pmol/sec/pmol enzyme | – | – | 0.102 pmol/sec/pmol enzyme |
